In patent US20190375708A1 (VenatoRx Pharmaceuticals, Inc., priority 2018, published 2019) one finds CC50 and EC50 data, which are given here for 10 compounds.

Where only a bound is given, the exact number is not on record here.

Data set [1] is described as follows: In vitro cytotoxicity assay (MTT cell viability) in HepG2 cells. Type of data set: cell-based, human. Conditions: human. In outline:
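HepG2 cells incubated 7 days at 37 °C, 5% CO2 with compounds from 30 μM to 1.0 nM (8 half-log dilutions). Viability read as MTT formazan absorbance at 492 nm, normalised to vehicle controls; CC50 from 4-parameter non-linear regression.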

Data set [2] deals with HBV replication in HepAD38 cells. As to the kind of experiment: Anti-HBV replication assay in HepAD38 cells (QPCR of extracellular HBV DNA). The data set is classed as cell-based, HBV (genotype D, serotype ayw). Conditions: Hepatitis B virus, 168 h, 7 days incubation, extracellular HBV DNA by QPCR, read-out: Anti-HBV EC50. Summed up: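 HepAD38 cells (HepG2 carrying tet-repressible HBV genotype D genome) induced by tetracycline withdrawal, treated 7 days at 37 °C with compound ([…], 1-log10 dilutions). Extracellular HBV DNA quantified by QPCR against a standard curve, normalised to DMSO; EC50 from 4-parameter fit.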

A word on the CC50: it is the concentration at which the toxic effect on the cells reaches its halfway point. Read a high CC50 as better tolerance by the cells. Usually EC50 stands for the midpoint of the concentration-response curve. For the compound `Cc1cc(NC(=O)c2c(C)c(C(=O)C(=O)NCCN3CCC(O)CC3)n(C)c2C)ccc1F` [Example 292, N-(4-fluoro-3-methylphenyl)-5-(2-((2-(4-hydroxypiperidin-1-yl)ethyl)amino)-2-oxoacetyl)-1,2,4-trimethyl-1H-pyrrole-3-carboxamide], the half-maximal cytotoxic concentration (CC50) at 7 days in data set [1] was more than 30000 nM. Besides, in data set [2], the half-maximal effective concentration (EC50) fell in the range of 50 to 499 nM.

The compound `CC(C)(C)NC(=O)C(=O)c1cc(C(=O)Nc2ccc(F)c(F)c2)c2n1CCCC2` [Example 398, 3-(2-(tert-butylamino)-2-oxoacetyl)-N-(3,4-difluorophenyl)-5,6,7,8-tetrahydroindolizine-1-carboxamide] registered a half-maximal cytotoxic concentration (CC50) at 7 days in data set [1] of more than 30000 nM. In addition, in data set [2], the EC50 lay in the range of 50 to 499 nM.

`Cc1c(C(=O)Nc2ccc(F)c(Cl)c2)c(C)n(C)c1C(=O)C(=O)N[C@H]1CC[C@@H](O)CC1` [Example 251, N-(3-chloro-4-fluorophenyl)-5-(2-(((1s,4s)-4-hydroxycyclohexyl)amino)-2-oxoacetyl)-1,2,4-trimethyl-1H-pyrrole-3-carboxamide] gave a CC50 at 7 days in data set [1] of more than 30000 nM. Besides, in data set [2], the EC50 is less than 50 nM.

For `Cc1cc(NC(=O)c2c(C)c(C(=O)C(=O)NC3CC(=O)NC(=O)C3)n(C)c2C)ccc1F` [Example 610, 5-(2-((2,6-dioxopiperidin-4-yl)amino)-2-oxoacetyl)-N-(4-fluoro-3-methylphenyl)-1,2,4-trimethyl-1H-pyrrole-3-carboxamide], in data set [1], the CC50 at 7 days is more than 30000 nM. For the same compound, the concentration for a half-maximal effect (EC50) in data set [2] was less than 50 nM.

The compound `Cc1cc(NC(=O)c2c(Cl)c(C(=O)C(=O)NC3(CO)CC(F)(F)C3)n3c2CCC3)ccc1F` [Example 548, 6-chloro-5-(2-((3,3-difluoro-1-(hydroxymethyl)cyclobutyl)amino)-2-oxoacetyl)-N-(4-fluoro-3-methylphenyl)-2,3-dihydro-1H-pyrrolizine-7-carboxamide] had a half-maximal cytotoxic concentration (CC50) at 7 days in data set [1] of 5000 to 30000 nM. In data set [2], the concentration for a half-maximal effect (EC50) was less than 50 nM.

`Cc1cc(NC(=O)c2c(C)c(C(=O)C(=O)N[C@@H]3C[C@H](O)[C@@H](O)[C@H]3O)n(C)c2C)ccc1F` [Example 712, N-(4-fluoro-3-methylphenyl)-1,2,4-trimethyl-5-(2-oxo-2-(((1R,2S,3R,4S)-2,3,4-trihydroxycyclopentyl)amino)acetyl)-1H-pyrrole-3-carboxamide] gave a CC50 at 7 days in data set [1] of more than 30000 nM. Besides, the EC50 in data set [2] is less than 50 nM.

In turn, `Cc1cc(NC(=O)c2c(C)c(C(=O)C(=O)N[C@H]3CCN(S(C)(=O)=O)C3)n(C)c2C)ccc1F` [Example 667, (S)-N-(4-fluoro-3-methylphenyl)-1,2,4-trimethyl-5-(2-((1-(methylsulfonyl)pyrrolidin-3-yl)amino)-2-oxoacetyl)-1H-pyrrole-3-carboxamide] showed a CC50 at 7 days in data set [1] of 500 to 4990 nM. In addition, the EC50 in data set [2] is less than 50 nM.

The compound `CC(C)(CO)NC(=O)C(=O)c1cc(C(=O)Nc2cc(F)c(F)c(F)c2)c2n1CCCC2` [Example 424, 3-(2-((1-hydroxy-2-methylpropan-2-yl)amino)-2-oxoacetyl)-N-(3,4,5-trifluorophenyl)-5,6,7,8-tetrahydroindolizine-1-carboxamide] displayed a 50% cytotoxic concentration (CC50) at 7 days in data set [1] of more than 30000 nM. In addition, the EC50 in data set [2] was 50 to 499 nM.

`Cc1cc(NC(=O)c2c(C)c(C(=O)C(=O)NC(C)(C)C(C)(C)O)n(C)c2C)ccc1F` [Example 617, N-(4-fluoro-3-methylphenyl)-5-(2-((3-hydroxy-2,3-dimethylbutan-2-yl)amino)-2-oxoacetyl)-1,2,4-trimethyl-1H-pyrrole-3-carboxamide]: the cytotoxic concentration (CC50) at 7 days in data set [1] is more than 30000 nM. Also, the half-maximal effective concentration (EC50) in data set [2] was less than 50 nM.

In data set [1], `Cc1cc(NC(=O)c2c(C)c(C(=O)C(=O)N[C@@H](C(=O)O)[C@H](C)O)n(C)c2C)ccc1F` [Example 35, (2-(4-((4-fluoro-3-methylphenyl)carbamoyl)-1,3,5-trimethyl-1H-pyrrol-2-yl)-2-oxoacetyl)-D-threonine] registered a CC50 at 7 days of more than 30000 nM. Moreover, in data set [2], the EC50 is more than 1000 nM.
